{
  "source": "patent US9993494B2",
  "about": "“Compositions and methods for treating fibrotic disease” (eFFECTOR Therapeutics, Inc., priority 2014, dated 2018)",
  "tested_on": "normal human lung fibroblasts",
  "experiment": "Ribosomal profiling: translational efficiency in TGFβ-treated fibroblasts",
  "format": "cell-based",
  "method_in_brief": "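Genome-wide RPF and total RNA libraries (ARTseq, RNA-Seq) were made from lysates of cycloheximide-treated, PBS-washed cells. After trimming and human-genome mapping, per-gene coding-region counts were compared between RPF and RNA for translational efficiency. Genes scoring low in either fraction were dropped.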",
  "data": [
    {"substance": "TGFβ", "values": [
      {"measurement": "Log2 TE RPS20", "setting": "ENSG00000008988, 5 replicates", "result": 1.435},
      {"measurement": "change in translational profile of DNASE1L1 caused by TGFβ", "setting": "ENSG00000013563, Control vs. TGFβ", "result": "D (D = <1.0 to 1.5)"},
      {"measurement": "Log2 TE VIM", "setting": "ENSG00000026025, 5 replicates", "result": 1.002},
      {"measurement": "Log2 TE ARHGAP6", "setting": "ENSG00000047648, 5 replicates", "result": "−1.082"},
      {"measurement": "Log2 TE KITLG", "setting": "ENSG00000049130, 5 replicates", "result": "−2.027"},
      {"measurement": "change in translational profile of KITLG caused by TGFβ", "setting": "ENSG00000049130, Control vs. TGFβ", "result": "A (A = <−2.5)"},
      {"measurement": "Log2 TE ADAMTS6", "setting": "ENSG00000049192, 5 replicates", "result": 2.863},
      {"measurement": "change in translational profile of ADAMTS6 caused by TGFβ", "setting": "ENSG00000049192, Control vs. TGFβ", "result": "F (F = >2.5)"},
      {"measurement": "Log2 TE LETMD1", "setting": "ENSG00000050426, 5 replicates", "result": 1.27},
      {"measurement": "change in translational profile of LETMD1 caused by TGFβ", "setting": "ENSG00000050426, Control vs. TGFβ", "result": "D (D = <1.0 to 1.5)"},
      {"measurement": "change in translational profile of PLEKHA5 caused by TGFβ", "setting": "ENSG00000052126, Control vs. TGFβ", "result": "C (C = <−1.0 to −1.5)"},
      {"measurement": "Log2 TE LAMA3", "setting": "ENSG00000053747, 5 replicates", "result": "−1.233"},
      {"measurement": "Log2 TE SYNE2", "setting": "ENSG00000054654, 5 replicates", "result": "−1.793"},
      {"measurement": "change in translational profile of EIF4B caused by TGFβ", "setting": "ENSG00000063046, Control vs. TGFβ", "result": "E (E = <1.5 to 2.5)"},
      {"measurement": "Log2 TE RPL18", "setting": "ENSG00000063177, 5 replicates", "result": 1.612},
      {"measurement": "change in translational profile of RPL18 caused by TGFβ", "setting": "ENSG00000063177, Control vs. TGFβ", "result": "E (E = <1.5 to 2.5)"},
      {"measurement": "Log2 TE LIMCH1", "setting": "ENSG00000064042, 5 replicates", "result": "−1.222"},
      {"measurement": "change in translational profile of HIPK2 caused by TGFβ", "setting": "ENSG00000064393, Control vs. TGFβ", "result": "C (C = <−1.0 to −1.5)"},
      {"measurement": "Log2 TE ASPM", "setting": "ENSG00000066279, 5 replicates", "result": "−2.175"},
      {"measurement": "change in translational profile of ASPM caused by TGFβ", "setting": "ENSG00000066279, Control vs. TGFβ", "result": "A (A = <−2.5)"},
      {"measurement": "change in translational profile of RASSF1 caused by TGFβ", "setting": "ENSG00000068028, Control vs. TGFβ", "result": "D (D = <1.0 to 1.5)"},
      {"measurement": "Log2 TE PABPC1", "setting": "ENSG00000070756, 5 replicates", "result": 1.207},
      {"measurement": "change in translational profile of PABPC1 caused by TGFβ", "setting": "ENSG00000070756, Control vs. TGFβ", "result": "D (D = <1.0 to 1.5)"},
      {"measurement": "Log2 TE RPL31", "setting": "ENSG00000071082, 5 replicates", "result": 1.6},
      {"measurement": "change in translational profile of RPL31 caused by TGFβ", "setting": "ENSG00000071082, Control vs. TGFβ", "result": "E (E = <1.5 to 2.5)"},
      {"measurement": "Log2 TE PLD1", "setting": "ENSG00000075651, 5 replicates", "result": "−1.032"},
      {"measurement": "change in translational profile of PLD1 caused by TGFβ", "setting": "ENSG00000075651, Control vs. TGFβ", "result": "B (B = <−1.5 to −2.5)"},
      {"measurement": "Log2 TE SNRPA", "setting": "ENSG00000077312, 5 replicates", "result": 1.462},
      {"measurement": "change in translational profile of EDN1 caused by TGFβ", "setting": "ENSG00000078401, Control vs. TGFβ", "result": "E (E = <1.5 to 2.5)"},
      {"measurement": "Log2 TE CDC14B", "setting": "ENSG00000081377, 5 replicates", "result": "−1.331"},
      {"measurement": "Log2 TE RPS5", "setting": "ENSG00000083845, 5 replicates", "result": 1.533},
      {"measurement": "Log2 TE AURKA", "setting": "ENSG00000087586, 5 replicates", "result": "−1.736"},
      {"measurement": "change in translational profile of AURKA caused by TGFβ", "setting": "ENSG00000087586, Control vs. TGFβ", "result": "B (B = <−1.5 to −2.5)"},
      {"measurement": "Log2 TE EPB41L1", "setting": "ENSG00000088367, 5 replicates", "result": 1.018},
      {"measurement": "change in translational profile of EPB41L1 caused by TGFβ", "setting": "ENSG00000088367, Control vs. TGFβ", "result": "D (D = <1.0 to 1.5)"},
      {"measurement": "Log2 TE ARHGAP28", "setting": "ENSG00000088756, 5 replicates", "result": "−1.024"},
      {"measurement": "Log2 TE RPL6", "setting": "ENSG00000089009, 5 replicates", "result": 1.107},
      {"measurement": "change in translational profile of RPL6 caused by TGFβ", "setting": "ENSG00000089009, Control vs. TGFβ", "result": "D (D = <1.0 to 1.5)"},
      {"measurement": "change in translational profile of P2RX7 caused by TGFβ", "setting": "ENSG00000089041, Control vs. TGFβ", "result": "B (B = <−1.5 to −2.5)"},
      {"measurement": "change in translational profile of KDM2B caused by TGFβ", "setting": "ENSG00000089094, Control vs. TGFβ", "result": "C (C = <−1.0 to −1.5)"},
      {"measurement": "change in translational profile of RPLP0 caused by TGFβ", "setting": "ENSG00000089157, Control vs. TGFβ", "result": "D (D = <1.0 to 1.5)"},
      {"measurement": "Log2 TE IGBP1", "setting": "ENSG00000089289, 5 replicates", "result": 1.266},
      {"measurement": "change in translational profile of IGBP1 caused by TGFβ", "setting": "ENSG00000089289, Control vs. TGFβ", "result": "E (E = <1.5 to 2.5)"},
      {"measurement": "Log2 TE GRAMD1A", "setting": "ENSG00000089351, 5 replicates", "result": 1.069},
      {"measurement": "Log2 TE IRAK3", "setting": "ENSG00000090376, 5 replicates", "result": "−1.017"},
      {"measurement": "change in translational profile of IRAK3 caused by TGFβ", "setting": "ENSG00000090376, Control vs. TGFβ", "result": "C (C = <−1.0 to −1.5)"},
      {"measurement": "change in translational profile of PABPC4 caused by TGFβ", "setting": "ENSG00000090621, Control vs. TGFβ", "result": "D (D = <1.0 to 1.5)"},
      {"measurement": "Log2 TE FMO2", "setting": "ENSG00000094963, 5 replicates", "result": "−2.146"},
      {"measurement": "change in translational profile of FMO2 caused by TGFβ", "setting": "ENSG00000094963, Control vs. TGFβ", "result": "A (A = <−2.5)"},
      {"measurement": "Log2 TE ACOT7", "setting": "ENSG00000097021, 5 replicates", "result": 1.011},
      {"measurement": "change in translational profile of ACOT7 caused by TGFβ", "setting": "ENSG00000097021, Control vs. TGFβ", "result": "D (D = <1.0 to 1.5)"},
      {"measurement": "change in translational profile of ATP5D caused by TGFβ", "setting": "ENSG00000099624, Control vs. TGFβ", "result": "D (D = <1.0 to 1.5)"},
      {"measurement": "change in translational profile of LGALS1 caused by TGFβ", "setting": "ENSG00000100097, Control vs. TGFβ", "result": "D (D = <1.0 to 1.5)"},
      {"measurement": "Log2 TE EIF3L", "setting": "ENSG00000100129, 5 replicates", "result": 1.429},
      {"measurement": "change in translational profile of EIF3L caused by TGFβ", "setting": "ENSG00000100129, Control vs. TGFβ", "result": "D (D = <1.0 to 1.5)"},
      {"measurement": "Log2 TE RPL3", "setting": "ENSG00000100316, 5 replicates", "result": 1.78},
      {"measurement": "change in translational profile of RPL3 caused by TGFβ", "setting": "ENSG00000100316, Control vs. TGFβ", "result": "E (E = <1.5 to 2.5)"},
      {"measurement": "Log2 TE TIMM9", "setting": "ENSG00000100575, 5 replicates", "result": 1.113}
    ]}
  ]
}
